Assay: in vitro
Conditions: from Compound A
Experimental: (1) Compound A for test, progesterone positive control, and 100 mM stock solutions of AST-3021 inhibitor were prepared and stored in the freezer (−10° C. to −30° C.).
1) Negative control group: at different time points (0 and 60 min), 30 μL/well of hepatocyte cytosol suspension containing 7.5 μM of sample for test was distributed in a 96-well plate. Three replicate wells were prepared in parallel.
2) Positive control group: at different time points (0, 5, 15, 30, 45 and 60 min), 30 μL/well of hepatocyte cytosol suspension containing 7.5 μM of the positive control was distributed in a 96-well plate. Three replicate wells were prepared in parallel.
3) Normal reaction group: at different time points (0, 5, 15, 30, 45 and 60 min), 30 μL/well of hepatocyte cytosol suspension containing 7.5 μM of sample for test was distributed in a 96-well plate. Three replicate wells were prepared in parallel.
4) Inhibition reaction group: at different time points (0, 5, 15, 30, 45 and 60 min), 30 μL/well of hepatocyte cytosol suspension containing […] of sample for test and 4.5 μM of the inhibitor was distributed in a 96-well plate. Three replicate wells were prepared in parallel.
6) 0 min samples: after 150 μL/well of acetonitrile containing the internal standard was added, then 15 μL/well of pre-heated NADPH working solution was added to the samples of normal reaction group, inhibition reaction group and positive control group, and 15 μL/well of pre-heated potassium phosphate buffer was added to the samples of negative control group.
7) Other samples (5, 15, 30, 45 and 60 min): for normal reaction group, inhibition reaction group and positive control group, 15 μL/well of pre-heated NADPH working solution was added to start the reaction; for negative control group, 15 μL/well of pre-heated potassium phosphate buffer was added. The reaction plates were then continued to incubate in a 37° C. water bath and the reactions were stopped by the addition of 150 μL/well of stop solution at the corresponding time points (5, 15, 30, 45 and 60 min).
The concentration of analyte in each sample was expressed as a peak area ratio (peak area analyte/peak areainternal standard), then the peak area ratio at 0 min was used as a reference to calculate the % Remaining at each time point of the incubation, and the ln logarithmic value of the % Remaining was linearly fitted to the incubation time and the half-life was calculated according to the following formula.
In the absence of AST-3021, 5 μM of progesterone was co-incubated with 2 mM of NADPH and 1 mg/mL of hepatocyte cytosol for 0-60 min as a positive control.

For `O=P(O)(N1CC1)N1CC1` [AST-2660], which “metabolite AST-2660 detection” value (human, no NADPH, no AST-3021) is on record?
The value was “not detected”.

And the “metabolite AST-2660 detection” value (human, with NADPH)?
Its value is “a small amount”.

And the “metabolite AST-2660 detection” value (human, with NADPH and AST-3021)?
Its value is “not detected”.

What about the “metabolite AST-2660 detection” value (monkey, no NADPH, no AST-3021) of the same compound?
Its value is “not detected”.

What about the “metabolite AST-2660 detection” value (monkey, with NADPH) of the same compound?
The value was “a small amount”.

What about the “metabolite AST-2660 detection” value (monkey, with NADPH and AST-3021) of the same compound?
Its value is “detected in only one monkey 60-min sample”.

What about the “metabolite AST-2660 detection” value (mouse, no NADPH, no AST-3021) of the same compound?
Its value is “not detected”.

What about the “metabolite AST-2660 detection” value (mouse, with NADPH) of the same compound?
Its value is “not detected”.

What about the “metabolite AST-2660 detection” value (mouse, with NADPH and AST-3021) of the same compound?
Its value is “not detected”.

What about the “metabolite AST-2660 detection” value (rat, no NADPH, no AST-3021) of the same compound?
The value was “not detected”.

And the “metabolite AST-2660 detection” value (rat, with NADPH)?
Its value is “not detected”.

And the “metabolite AST-2660 detection” value (rat, with NADPH and AST-3021)?
Its value is “not detected”.
